Assay results: patent publication US20050101595A1, “N-containing cycloalkyl-substituted amino-thiazole derivatives and pharmaceutical compositions for inhibiting cell proliferation and methods for their use” (PFIZER INC., priority 2003, published 2005)
pIC50, pKi: −log10 of the molar value. Counter-ions that a name gives are not always drawn. Like-named read-outs stand apart in the source and are kept apart here.

Tests used:
HCT-116 cell line = experiment: Inhibition of cell growth, tetrazolium salt (MTT) assay; type: cell-based; conditions: for HCT-116 % Inhibition at 0.25 μM: 0.25 μM compound; for pIC50: Homo sapiens, HCT-116, 120 h, MTT, three to five days, read-out: HCT-116 IC50
Procedure, shortened: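 First, cells were seeded in McCoy's 5A medium and held 4 h. Next, inhibitor concentrations in 0.5% (v/v) DMSO were applied for three to five days at 37° C, 5% CO2. Finally, after 4 h with 0.2 mg/mL MTT and medium removal, solubilized formazan was measured at 540 nm.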

CDK2/Cyclin A = CDK2/Cyclin A (Homo sapiens, UniProt P24941); experiment: Inhibition of CDK2/Cyclin A Retinoblastoma Kinase Activity; type: biochemical; conditions: for pKi: apparent Ki, CDK2/proteolyzed cyclin A, Rb fragment substrate, 25 μM ATP
Procedure, shortened: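 CDK2 (10 or 19 nM), insect-cell expressed, gel-filtration purified with truncated cyclin A; Rb fragment substrate; 25 μM ATP; 10 mM HEPES pH 7.4, 10 mM MgCl2; 30° C, 60 or 75 min; EDTA stop; phosphocellulose/nitrocellulose capture, phosphorimager. % inhibition vs DMSO control, no-enzyme background subtracted.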

[1] = target: human CDK4 and genetically truncated (1-264) cyclin D3 (Homo sapiens, UniProt P11802); experiment: Inhibition of CDK4/Cyclin D Retinoblastoma Kinase Activity; type: biochemical; conditions: for pKi: apparent Ki, CDK4/truncated cyclin D3, Rb fragment substrate, 25 μM ATP
Sequence of human CDK4 and genetically truncated (1-264) cyclin D3 (P11802 whole entry, the tested form may be a part): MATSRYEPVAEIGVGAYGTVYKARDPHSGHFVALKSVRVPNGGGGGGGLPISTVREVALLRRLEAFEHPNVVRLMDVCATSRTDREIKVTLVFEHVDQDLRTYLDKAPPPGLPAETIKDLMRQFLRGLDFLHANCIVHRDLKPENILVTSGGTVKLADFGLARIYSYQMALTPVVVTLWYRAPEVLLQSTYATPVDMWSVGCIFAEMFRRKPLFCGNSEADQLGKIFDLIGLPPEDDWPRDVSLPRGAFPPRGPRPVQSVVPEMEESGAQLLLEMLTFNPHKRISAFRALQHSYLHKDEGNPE
Sequence of human CDK4 and genetically truncated (1-264) cyclin D3 (P30281 1-264 partner): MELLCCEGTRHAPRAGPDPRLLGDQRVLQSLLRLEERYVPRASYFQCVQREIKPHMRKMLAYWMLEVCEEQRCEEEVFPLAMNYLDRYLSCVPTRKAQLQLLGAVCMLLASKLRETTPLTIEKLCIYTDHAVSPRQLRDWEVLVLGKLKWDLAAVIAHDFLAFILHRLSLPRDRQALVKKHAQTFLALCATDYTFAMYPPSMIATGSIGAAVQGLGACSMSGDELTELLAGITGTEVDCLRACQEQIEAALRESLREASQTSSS
Procedure, shortened: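 The enzyme complex (5 nM), expressed in co-infected insect cells, was incubated with recombinant Rb fragment, 25 μM radiolabelled ATP and 2% DMSO at 30 °C. Reactions were stopped with EDTA after 20 minutes, or 60 minutes for tight-binding inhibitors. Apparent Ki values came from competitive inhibition fits.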

[2] = 0.1 μM compound, HCT-116, Table 4

## Nc1nc(NC2CCN(C(=O)C34CC5CC(CC(C5)C3)C4)CC2)sc1C(=O)c1c(F)cccc1F [Example R54]
HCT-116 cell line; HCT-116 cells, at 0.1 μM
  HCT-116 % Inhibition at 0.1 μM: 0%
HCT-116 cell line; HCT-116 cells
  HCT-116 5 Inhibition at 0.25 μM: 39
CDK2/Cyclin A; at 0.03 μM
  CDK2 % Inhibition at 0.03 μM: 21%
[1]; at 0.03 μM
  CDK4 % Inhibition at 0.03 μM: 38%

## Nc1nc(NC2CCN(S(=O)(=O)c3ccc(Oc4ccncc4)cc3)CC2)sc1C(=O)c1c(F)cccc1F [Example P85]
HCT-116 cell line; 0.1 μM compound, HCT-116, Table 3
  HCT-116 % Inhibition at 0.1 μM: 12%
HCT-116 cell line; HCT-116, Table 3
  HCT-116 % Inhibition at 0.25 μM: 26%
CDK2/Cyclin A; 0.03 μM compound, Table 3
  CDK2 % Inhibition at 0.03 μM: −28%
[1]; 0.03 μM compound, Table 3
  CDK4 % Inhibition at 0.03 μM: 14%

## CCCCCCNC(=O)N1CCC(Nc2nc(N)c(C(=O)c3c(F)cccc3F)s2)CC1 [Example O58]
HCT-116 cell line; HCT-116, Table 2
  HCT-116 % Inhibition at 0.25 μM: 42%
CDK2/Cyclin A; 0.03 μM compound, Table 2
  CDK2 % Inhibition At 0.03 μM: 34%
[1]; 0.03 μM compound, Table 2
  CDK4 % Inhibition at 0.03 μM: 6%

## CCCC(CCC)C(=O)N1CCC(Nc2nc(N)c(C(=O)c3c(F)cccc3F)s2)CC1 [Example R166]
HCT-116 cell line; HCT-116 cells, at 0.1 μM
  HCT-116 % Inhibition at 0.1 μM: 0%
HCT-116 cell line; HCT-116 cells
  HCT-116 5 Inhibition at 0.25 μM: 44
CDK2/Cyclin A; at 0.03 μM
  CDK2 % Inhibition at 0.03 μM: 17%
[1]; at 0.03 μM
  CDK4 % Inhibition at 0.03 μM: 37%

## COC(=O)c1ccc(C(=O)N2CCC(Nc3nc(N)c(C(=O)c4c(F)cccc4F)s3)CC2)cc1 [Example C4, 4-{4-[4-Amino-5-(2,6-difluoro-benzoyl)-thiazol-2-ylamino]-piperidine-1-carbonyl}-benzoic Acid Methyl Ester]
HCT-116 cell line; first HCT-116 column (c4)
  pIC50: 6.10
HCT-116 cell line; second HCT-116 column (c5)
  pIC50: 5.70
CDK2/Cyclin A
  pKi: 7.09
[1]
  pKi: 7.96

## Nc1nc(NC2CCN(S(=O)(=O)c3cnc(OCCN4CCCCC4)nc3)CC2)sc1C(=O)c1c(F)cccc1F [Example H23, (4-Amino-2-{1-[2-(2-piperidin-1-yl-ethoxy)-pyrimidine-5-sulfonyl]-piperidin-4-ylamino}-thiazol-5-yl)-(2,6-difluoro-phenyl)-methanone Trifluoroacetic Acid Salt]
HCT-116 cell line; first HCT-116 column (c4)
  pIC50: 7.03
HCT-116 cell line; second HCT-116 column (c5)
  pIC50: 5.82
CDK2/Cyclin A
  pKi: 8.82
[1]
  pKi: 9.28

## CCn1nc(C)c(Br)c1C(=O)N1CCC(Nc2nc(N)c(C(=O)c3c(F)cccc3F)s2)CC1 [Example R68]
HCT-116 cell line; HCT-116 cells, at 0.1 μM
  HCT-116 % Inhibition at 0.1 μM: 0%
HCT-116 cell line; HCT-116 cells
  HCT-116 5 Inhibition at 0.25 μM: 33
CDK2/Cyclin A; at 0.03 μM
  CDK2 % Inhibition at 0.03 μM: 22%
[1]; at 0.03 μM
  CDK4 % Inhibition at 0.03 μM: 15%

## CN(C)c1ccc(NC(=O)N2CCC(Nc3nc(N)c(C(=O)c4c(F)cccc4F)s3)CC2)cc1 [Example B2, 4-[4-Amino-5-(2,6-difluoro-benzoyl)-thiazol-2-ylamino]-piperidine-1-carboxylic Acid (4-Dimethylamino-phenyl)-amide]
HCT-116 cell line; first HCT-116 column (c4)
  pIC50: 6.46
HCT-116 cell line; second HCT-116 column (c5)
  pIC50: 6.02
CDK2/Cyclin A
  pKi: 7.55
[1]
  pKi: 6.96

## Cc1ccc(C(=O)N2CCC(Nc3nc(N)c(C(=O)c4c(F)cccc4F)s3)CC2)cc1 [Example Q35]
HCT-116 cell line; [2]
  HCT-116 % Inhibition at 0.1 μM: 3%
HCT-116 cell line; HCT-116, Table 4
  HCT-116 % Inhibition at 0.25 μM: 21%
CDK2/Cyclin A; 0.03 μM compound, Table 4
  CDK2 % Inhibition at 0.03 μM: 35%
[1]; 0.03 μM compound, Table 4
  CDK4 % Inhibition at 0.03 μM: 64%

## Nc1nc(NC2CCN(C(=O)c3ccccc3)CC2)sc1C(=O)c1c(F)cccc1F [Example Q9]
HCT-116 cell line; [2]
  HCT-116 % Inhibition at 0.1 μM: 0%
HCT-116 cell line; HCT-116, Table 4
  HCT-116 % Inhibition at 0.25 μM: 36%
CDK2/Cyclin A; 0.03 μM compound, Table 4
  CDK2 % Inhibition at 0.03 μM: 13%
[1]; 0.03 μM compound, Table 4
  CDK4 % Inhibition at 0.03 μM: 52%

## C[C@@H]1CN(c2ncc(S(=O)(=O)N3CCC(Nc4nc(N)c(C(=O)c5c(F)cccc5F)s4)CC3)cn2)C[C@H](C)N1 [Example G33, (4-Amino-2-{1-[2-(3,5-dimethyl-piperazine-1-yl)-pyrimidine-5-sulfonyl]-piperidine-4-ylamino}-thiazol-5-yl)-(2,6-difluoro-phenyl)-methanone Hydrochloride Salt]
HCT-116 cell line; first HCT-116 column (c4)
  pIC50: 7.29
HCT-116 cell line; second HCT-116 column (c5)
  pIC50: 6.10
CDK2/Cyclin A
  pKi: 9.00
[1]
  pKi: 9.52

## Cc1ccccc1C(=O)N1CCC(Nc2nc(N)c(C(=O)c3c(F)cccc3F)s2)CC1 [Example Q17]
HCT-116 cell line; [2]
  HCT-116 % Inhibition at 0.1 μM: 2%
HCT-116 cell line; HCT-116, Table 4
  HCT-116 % Inhibition at 0.25 μM: 34%
CDK2/Cyclin A; 0.03 μM compound, Table 4
  CDK2 % Inhibition at 0.03 μM: −11%
[1]; 0.03 μM compound, Table 4
  CDK4 % Inhibition at 0.03 μM: 45%

## Nc1nc(NC2CCN(S(=O)(=O)c3ccc(N4CCNCC4)nc3)CC2)sc1C(=O)c1c(F)cccc1F [Example G6, 1-{4-Amino-2-[1-(6-piperazin-1-yl-pyridine-3-sulfonyl)-piperidin-4-ylamino]-thiazol-5-yl}-1-(2,6-difluoro-phenyl)-methanone]
HCT-116 cell line; first HCT-116 column (c4)
  pIC50: 6.68
HCT-116 cell line; second HCT-116 column (c5)
  pIC50: 5.49
CDK2/Cyclin A
  pKi: 9.16
[1]
  pKi: 9.27

## Cc1cc(C)c2c(c1C(=O)N1CCC(Nc3nc(N)c(C(=O)c4c(F)cccc4F)s3)CC1)CC(C)(C)C2=O [Example R29]
HCT-116 cell line; HCT-116 cells, at 0.1 μM
  HCT-116 % Inhibition at 0.1 μM: 0%
HCT-116 cell line; HCT-116 cells
  HCT-116 5 Inhibition at 0.25 μM: 36
CDK2/Cyclin A; at 0.03 μM
  CDK2 % Inhibition at 0.03 μM: 2%
[1]; at 0.03 μM
  CDK4 % Inhibition at 0.03 μM: 23%
